System: pre-purified cardiac clusters of murine αPIG-AT25 iPSCs
Assay: Cell yield, flow cytometry and morphology of pre-purified miPSC cardiac clusters
Assay type: cell-based
Procedure: The differentiation of transgenic mPSCs was initiated in mass cultures as briefly described below. One million cells were transferred per non-adhering 10 cm dish with 14 ml differentiation medium composed of Iscove's Modified Dulbecco's Medium (IMDM) with GlutaMAX (Life Technologies) supplemented with 20% FBS, 1×NEAA and 100 μM β-ME. Embryoid bodies (EBs) from day 2 of differentiation were transferred in a 250 ml spinner flask (CELLSPIN 250, Integra Biosciences, Fernwald, Germany) with a density of 3×10^4 EBs per 200 ml of differentiation medium. On the first 2 days of differentiation medium was supplemented with 50 μg/ml L-ascorbic acid phosphate (AA, Wako pure chemicals industry, Japan) in order to promote the development of cardiac cells. For the selection of GFP-expressing CMs, 50 ml of the medium was exchanged with fresh differentiation medium and 8 μg/ml puromycin (Life Technologies) were supplemented on day 9 of differentiation. Two days later, the cardiac clusters were transferred on non-adhering 10 cm dishes with fresh differentiation medium containing 8 μg/ml puromycin. In the further course of differentiation medium was exchanged every 2-3 days. If not otherwise specified, the purification of GFP-positive CMs with puromycin was continued until day 16 of differentiation. For single cell analyses and transfer of PSC-derived CMs on cell culture plates, cardiac clusters were dissociated with 0.25% trypsin-EDTA (Life Technologies) supplemented with 50 U/ml DNase I (AppliChem, Darmstadt, Germany) for 20-30 min at 37° C. The mPSC-derived CMs were filtered through a polyamide membrane with […] pore size (Sefar, Heiden, Switzerland). Cell numbers were determined with a Neubauer hemocytometer and cells were stored on ice until further use.
Aiming at complete elimination of remaining PSCs in PSC-derived cell aggregates, murine cardiac clusters were pre-purified with 2-4 μg/ml puromycin from day 9 until day 14 of differentiation in order to prevent complete removal of PSCs and then treated with SM6 for 2 days to assess its potential for removal of contaminating PSCs in the absence of puromycin. After treatment, cardiac clusters were dissociated with 0.25% trypsin-EDTA supplemented with 50 U/ml of DNase I and the level of PSC contamination was determined using colony formation assay, flow cytometry for SSEA-1 and RT-PCR for Oct4. […] Developing PSC colonies on MEF plates were quantified and visualized with 1% crystal violet (Fluka Analytical, St. Louis, USA) diluted in methanol (Applichem). […]
Cells were measured with an Attune acoustic focusing cytometer (Life Technologies) and data was analyzed with the Attune Cytometric software v1.2.5 (Life Technologies). Marker expression was analyzed in a gated population of 10^4 viable cells. […]

SMILES	morphology and contractility of cardiac clusters (1 μM, 5 μM and 10 μM, 48 hours)	fraction of GFP−/cTnT− non-CMs (10 μM, flow cytometry) [%]	fraction of GFP+/cTnT+ CMs of the viable cell population (increasing concentrations of SM6, flow cytometry)	reduction of total cell yield compared to DMSO-treated control (puromycin 8 μg/ml) [%]
Oc1ccccc1CN[C@@H]1CCCC[C@H]1NCc1ccccc1O [SM6, (1R,2R)-N,N′-di(2-hydroxybenzyl)-1,2-diaminocyclohexane]	not compromised	7	up to 74%	–
COc1ccc(C[C@H](N)C(=O)N[C@H]2[C@@H](O)[C@H](n3cnc4c(N(C)C)ncnc43)O[C@@H]2CO)cc1 [puromycin, reference compound]	–	–	–	20.55±14.43
